“And” between values parts separate entries of the source, which are not always exact repeats. Identical values can stand only once. “Also recorded” adds a separate entry of the source. Marks after values point to notes of the source that are not given here.
What was measured:
[1] = test system: advanced NSCLC with PD-L1 ≥50% and brain metastases; experiment: EMPOWER-Lung 1 phase 3 subgroup analysis: clinical outcomes in patients with treated stable brain metastases; assay type: in vivo, human
Text: Primary Endpoints: The primary endpoints are OS and PFS (per RECIST 1.1, Eisenhauer 2009). Overall survival is defined as the time from randomization to the date of death. A patient who has not died is censored at the last known date of contact. Progression-free survival is defined as the time from randomization to the date of the first documented tumor progression or death due to any cause. Patients are censored according to the following rules: […] Secondary Endpoints: A key secondary endpoint in the study is ORR. Objective response rate is defined as the number of patients with a best overall response (BOR) of confirmed CR or PR divided by the number of patients in the efficacy analysis set. Best overall response is defined as the best overall response (per RECIST 1.1) between the date of randomization and the date of the first objectively documented progression or the date of subsequent anti-cancer therapy, whichever comes first. Other secondary endpoints include DOR and QOL. Duration of response is defined as the time between the date of first response (CR or PR) to the date of the first documented tumor progression (per RECIST 1.1) or death due to any cause. Quality of life is measured by EORTC QLQ-C30 and […]. Further secondary endpoints also include the safety and tolerability of cemiplimab. To evaluate the safety and tolerability of cemiplimab versus platinum-based chemotherapies, safety and tolerability are measured by the incidence of AEs, serious adverse events (SAEs), deaths, and laboratory abnormalities to assess immunogenicity (ADA/Nabs) to cemiplimab and any relationship with drug concentrations, efficacy and safety. Methods: The design of this study is illustrated in FIG. 1. […] Tumor response to therapy was assessed according to RECIST 1.1, measured by CT or MRI. […] All patients received local therapy and needed to be neurologically stable before joining the trial. In patients with a known history of treated brain metastases at baseline, CT or MRI of the brain with contrast (unless contraindicated) was performed at screening (except if performed within 60 days prior to screening). Additional sites of known disease (including CNS) were also imaged at screening. During the treatment and follow-up period, surveillance imaging of the brain was performed every 18 weeks for year 1, and every 24 weeks for year 2, or sooner if clinically indicated.

[2] = test system: advanced NSCLC with PD-L1 ≥50% and clinically stable treated brain metastases; experiment: EMPOWER-Lung 1 post-hoc patient reported outcomes (EORTC QLQ-C30/QLQ-LC13) in brain metastases subgroup; assay type: in vivo, human
Protocol: Patient Reported Outcomes (PROs): Post-hoc exploratory analyses were conducted to evaluate PROs in this subgroup of aNSCLC patients with PD-L1 ≥50% and clinically stable treated brain metastases at baseline. PROs were assessed at baseline and day 1 of each treatment cycle for the first 6 cycles, and then on day 1 of every third cycle using EORTC QLQ-C30 and QLQ-LC13 questionnaires. Higher scores indicate better functioning, global health status (GHS)/quality of life (QoL), or worse symptom severity. Mixed model for repeated measures analyses were performed to compare overall change from baseline scores between the two treatment arms, while controlling for baseline characteristics. The baseline PRO scores of the cemiplimab arm were broadly similar with the chemotherapy arm.

[3] = test system: advanced NSCLC with PD-L1 ≥50%; experiment: EMPOWER-Lung 1 patient-reported symptoms, functioning and QoL (EORTC QLQ-C30/QLQ-LC13), ITT population; assay type: in vivo, human; conditions: for Definitive deterioration on key symptoms (dyspnea, cough, pain in chest, pain in other body parts, fatigue, nausea/vomiting, appetite loss, constipation, diarrhea): all P<0.05
Text: Methods: EMPOWER-Lung 1 was a multicenter, open-label, randomized, controlled, Phase III, pivotal clinical trial of cemiplimab in adults (≥18 years) with: […] (ii) ECOG performance status ≤1; (iii) adequate organ and bone marrow function; and (iv) adequately treated clinically stable brain metastases (historically underrepresented in clinical trials) were allowed to enroll. […] In the intent-to-treat population, mixed-effects repeated measures models (mixed-model repeat measures, MMRM) were used to estimate least squares (LS) mean change from BL on all scales. Follow-up assessment was conducted 14 to 30 days after the last study treatment administration if a patient discontinued, or 14 to 30 days (±7 days) after the last cycle visit if the patient completed treatment. […] Scores range from 0 to 100; high scores on functional domains and low scores on symptoms reflect better outcomes. The QLQ-LC13 is a patient-reported outcome measure that assesses lung cancer disease- and treatment-specific symptoms during the past week. Scores range from 0 to 100; higher scores reflect higher symptom levels. […] MMRM analysis was used to estimate LS mean change from baseline on all scales among patients with a baseline and at least one post-baseline score. […] Hazard ratios (HRs) with 95% confidence intervals (95% CIs) were derived from the survival analyses to determine the likelihood of definitive deterioration. Analyses were based on the intention-to-treat (ITT) population consisting of all randomized patients.

[4] = test system: locally advanced NSCLC (laNSCLC) with PD-L1 ≥50%; experiment: EMPOWER-Lung 1 subgroup analysis: patients with locally advanced NSCLC; assay type: in vivo, human
Text: Methods: […] Patients with locally advanced non-small cell lung cancer ([…]) were those with Stage IIIB/IIIC disease who were not candidates for definitive concurrent chemoradiotherapy. Study Design: Key eligibility criteria included: (i) treatment-naïve advanced NSCLC; […] (iii) no EGFR, ALK, or ROS1 mutations; […] Stratification factors included: histology (squamous vs non-squamous) and region (Europe, Asia, or ROW). Primary endpoints: OS and PFS. Secondary endpoints: ORR (key), DOR, HRQoL, and safety. The patients had locally advanced NSCLC, including those with Stage IIIB/IIIC disease who were not candidates for treatment with definitive concurrent chemoradiotherapy or had recurred after initial treatment with concurrent chemoradiotherapy.

[5] = test system: advanced NSCLC (aNSCLC) with PD-L1 ≥50%; experiment: EMPOWER-Lung 1 phase 3 study, cemiplimab monotherapy vs platinum-doublet chemotherapy, OS and PFS; assay type: in vivo, human; conditions: cemiplimab monotherapy versus platinum-doublet chemotherapy
Text: Additional objectives include further characterization of tumor responses, patient-reported outcomes, safety, and pharmacokinetics (PK). Objectives: […] Progression-free survival, the time to tumor progression (based on Response Evaluation Criteria in Solid Tumors version 1.1 [RECIST 1.1] criteria [Eisenhauer) 2009]) or death, was chosen as a primary endpoint because PFS is recognized as a marker of clinical benefit. […] Disease progression will be determined based on the RECIST 1.1 criteria (Eisenhauer 2009). […] A secondary objective of the study includes comparing the ORR of cemiplimab versus platinum-based chemotherapies. Primary Endpoints: The primary endpoints are OS and PFS (per RECIST 1.1, Eisenhauer 2009). Overall survival is defined as the time from randomization to the date of death. A patient who has not died is censored at the last known date of contact. Progression-free survival is defined as the time from randomization to the date of the first documented tumor progression or death due to any cause. Patients are censored according to the following rules: […] Study Design: […] […] Safety is assessed through the occurrence of TEAEs, vital sign evaluation, physical examination, and laboratory analyses. […] […]

[6] = test system: advanced NSCLC; conditions: in vivo
[7] = after baseline, brain metastases subgroup, n=34 per arm
[8] = brain metastases subgroup, n=34 per arm
[9] = brain metastases subgroup, cemiplimab vs chemotherapy
[10] = Cemiplimab minus chemo, QLQ-C30, ITT
[11] = cemiplimab vs chemotherapy, ITT
[12] = cemiplimab n=45, chemotherapy n=42
[13] = cemiplimab n=45, chemotherapy n=42, listed as cemiplimab

Substance: cemiplimab
- CNS intracranial disease progression, % of patients [1, 7]: 5.9%
- CNS intracranial disease progression, patients [1, 7]: two
- Best overall tumor response: Complete response, % [1, 8]: (8.8) %
- Best overall tumor response: Non-evaluable, % [1, 8]: (11.8) %
- Best overall tumor response: Partial response, % [1, 8]: (32.4) %
- Best overall tumor response: Progressive disease, % [1, 8]: (20.6) %
- Best overall tumor response: Stable disease, % [1, 8]: (26.5) %
- Extra-CNS disease progression, % of patients [1, 8]: 26.5%
- Extra-CNS disease progression, patients [1, 8]: 9 patients
- Intracranial disease progression due to a new tumor, % of patients [1, 8]: 2.9%
- Intracranial disease progression due to a new tumor, patients [1, 8]: one
- Intracranial disease progression due to an existing tumor, % of patients [1, 8]: 5.9%
- Intracranial disease progression due to an existing tumor, patients [1, 8]: two
- ORR [1, 8]: 41.2%
- OS, median ([1]; brain metastases subgroup, n=34 per arm, cemiplimab 350 mg IV Q3W or investigator's choice chemotherapy): 18.7 months
- ORR ([1]; brain metastases subgroup, n=34 per arm, listed as cemiplimab): 41.2%
- PFS, median ([1]; brain metastases subgroup, n=34 per arm, per independent review committee): 10.4 months
- ORR odds ratio (95% CI) [1, 9]: 6.9 (1.7-27.8); P = 0.0034*
- OS HR (95% CI) [1, 9]: 0.17 (0.04-0.76); P = 0.0091
- PFS HR (95% CI) [1, 9]: 0.45 (0.22-0.92); P = 0.0231
- Median KM estimation of brain metastasis PFS ([1]; cemiplimab versus chemotherapy, FIG. 4): superior
- Difference in overall change from baseline in appetite loss ([2]; cemiplimab versus chemotherapy): −7.43
- Difference in overall change from baseline in emotional functioning ([2]; cemiplimab versus chemotherapy): 7.27
- Difference in overall change from baseline in role functioning ([2]; cemiplimab versus chemotherapy): 8.59
- Difference in overall change from baseline in symptoms of fatigue ([2]; cemiplimab versus chemotherapy): −8.19
- Overall change from baseline in GHS/QOL, difference cemiplimab versus chemotherapy ([2]; mixed model for repeated measures): 9.35
- Difference in LS mean change from BL (95% CI): Cognitive functioning [3, 10]: 2.5 (0.4-4.5)*
- Difference in LS mean change from BL (95% CI): Emotional functioning [3, 10]: 3.4 (1.0-5.9)*
- Difference in LS mean change from BL (95% CI): GHS/QoL [3, 10]: 5.4 (2.7-8.1)*
- Difference in LS mean change from BL (95% CI): Physical functioning [3, 10]: 4.2 (1.6-6.7)*
- Difference in LS mean change from BL (95% CI): Role functioning [3, 10]: 3.3 (0.2-6.3)*
- Difference in LS mean change from BL (95% CI): Social functioning [3, 10]: 5.2 (2.5-7.9)*
- LS mean change (SE) from baseline in GHS/QOL across all timepoints ([3]; MMRM analysis, EORTC QLQ-C30, C2 to C15): 7.1 (1.0)
- Definitive deterioration on key symptoms (dyspnea, cough, pain in chest, pain in other body parts, fatigue, nausea/vomiting, appetite loss, constipation, diarrhea) ([3]; cemiplimab versus chemotherapy): lower likelihood of definitive deterioration
- Definitive deterioration on key symptoms (dyspnea, cough, pain in chest, pain in other body parts, fatigue, nausea/vomiting, appetite loss, constipation, diarrhea) ([3]; cemiplimab versus chemotherapy, listed as cemiplimab): significantly lower risk of definitive deterioration
- Definitive deterioration of treatment-related symptoms of peripheral neuropathy and alopecia ([3]; cemiplimab versus chemotherapy, both P<0.05): lower likelihood of definitive deterioration; also recorded: lower risk of definitive deterioration
- HR (95% CI) for definitive deterioration: Cognitive functioning [3, 11]: 0.64 (0.44-0.93)*
- HR (95% CI) for definitive deterioration: Emotional functioning [3, 11]: 0.49 (0.30-0.79)*
- HR (95% CI) for definitive deterioration: GHS/QoL [3, 11]: 0.73 (0.52-1.03)
- HR (95% CI) for definitive deterioration: Physical functioning [3, 11]: 0.59 (0.42-0.84)*
- HR (95% CI) for definitive deterioration: Role functioning [3, 11]: 0.65 (0.46-0.92)*
- HR (95% CI) for definitive deterioration: Social functioning [3, 11]: 0.50 (0.35-0.72)*
- 12-month OS ([4]; FIG. 9): 78.5%
- 12-month PFS ([4]; FIG. 10): 38.5%
- Best overall response: CR, % [4, 12]: (2.2) %
- Best overall response: Non-evaluable, % [4, 12]: (17.8) %
- Best overall response: PD, % [4, 12]: (15.6) %
- Best overall response: Partial response, % [4, 12]: (42.2) %
- Best overall response: Stable disease, % [4, 12]: (22.2) %
- ORR, % [4, 12]: (44.4) %
- PFS, median [4, 12]: 8.4 months
- ORR, % [4, 13]: 44% and 44.4%
- OS, median [4, 13]: not yet reached
- ORR odds ratio (95% CI) ([4]; cemiplimab vs chemotherapy): 1.8 (0.7-4.2); *P = 0.20
- OS HR (95% CI) ([4]; cemiplimab vs chemotherapy): 0.5 (0.2-1.1); P = 0.0875
- PFS HR (95% CI) ([4]; cemiplimab vs chemotherapy): 0.5 (0.3-0.9); P = 0.0153
- Reduction in the risk of disease progression ([4]; cemiplimab vs chemotherapy): 51%
- PFS HR (95% CI) ([4]; cemiplimab vs chemotherapy, listed as cemiplimab): 0.49
- KM estimated DOR, median ([4]; responders: cemiplimab n=20, chemotherapy n=13): 12.5 months
- Overall survival hazard ratio [5]: 0.57
- Progression-free survival hazard ratio [5]: 0.54
- Patients with ≥1 PRBC transfusions, % [6]: 1.1%
- Patients with ≥1 platelet transfusions, % [6]: 0.3%
- SAE-associated hospitalization rate [6]: 33.2 per 100 patient-years

From US20250270321A1, “METHODS OF TREATING LUNG CANCER BY ADMINISTERING A PD-1 INHIBITOR” (priority 2021, published 2025)
